Laboratory results as given in patent US5753671A, “Imidazopyridine derivatives as dual histamine (H1) and platelet activating factor (PAF) antagonists” (British Biotech Pharmaceuticals Limited, priority 1994, dated 1998).

Key:
[1] = tested on: PAF-Induced Platelet Aggregation; assay: Inhibition of PAF-Induced Platelet Aggregation; type: cell-based, rabbit (male New Zealand White); settings: Oryctolagus cuniculus; rabbit platelet-rich plasma, PAF 100 ng.ml^-1 (50 μl aliquot), 37° C.
Procedure: Inhibition of PAF-Induced Platelet Aggregation
Male New Zealand White rabbits (3.0-3.5 kg) were anaesthetised by intravenous administration of sodium pentobarbitone, […], via a marginal ear vein. The trachea was exposed and connected to a respiratory pump (Havard UK) to provide artificial ventilation. A carotid artery was exposed and cannulated and the animal was exsanguinated. Whole blood was collected in a syringe containing tri-sodium citrate (3.8% w/v) to a ratio of 1 part citrate:9 parts blood.
Collected blood was centrifuged at 180×g for 15 minutes at room temperature (21° C.) to prepare platelet-rich plasma (PRP). The remaining blood was then centrifuged at 1800×g for 10 minutes at room temperature to obtain platelet poor plasma (PPP).
Platelet count of the PRP was measured using a Technicon H1 blood cell differential analyser (Bayer Diagnostics UK) and adjusted with PPP to obtain a final platelet count of 500,000 platelets per μl of plasma, this being the normal physiological platelet count for rabbits. Corrected PRP was left to equilibrate at room temperature for 30 minutes before use.
Aggregation studies were carried out using 4-channel aggregometer (PAP-4C, BioData USA) as follows: 400 μl aliquots of PRP were placed in siliconised cuvettes and incubated to 37° C. for 1 to 2 minutes in the heating block of the aggregometer. Baseline (100% aggregation) was set up using PPP (500 μl in a siliconised cuvette). The PRP was placed into a measuring well of the aggregometer, and a stir bar was added. The sample was stirred at 1000 rpm. The machine was activated to set the 0% aggregation level. Test compound or vehicle (50 μl) was added to the PRP, where any effects on the baseline was noted. PAF (100 ng.ml^-1 as 50 μl aliqout) was added to the PRP 3 minutes after test compound or vehicle. Aggregation was measured for a further 4 minutes after PAF addition and the maximum aggregation over the 4 minutes was recorded.
The investigation of different concentrations of test compound was performed in triplicate. Data were expressed as […] of the sample and test compound data were compared to vehicle data to obtain % inhibition of the PAF-induced aggregation from which IC50 values could be determined.
PAF was made up in sterile saline (NaCl 0.9% w/v) containing BSA (0.25% w/v) from an initial stock solution (10 mg.ml^-1 in EtOH). Test compounds were made up as 1×10^-3 M stock solutions in sterile saline containing molar equivalents of 1N HCI (v/v) or in DMSO.

[2] = biological target: T1, Histamine-1 Receptors on Hela-S3 Cells (Homo sapiens, UniProt P35367); assay: Inhibition of [^3 H]-Pyrilamine Binding to Histamine-1 Receptors on Hela-S3 Cells; settings: 0.5 h, 1 μM test compound, 37° C., 30 minutes, read-out: % Specific Binding
T1 construct: histamine-1 receptors on Hela-S3 cells (American Type Culture Collection); endogenous in cells; host or cells: HeLa S3 cells (American Type Culture Collection), intact cell suspension
T1 sequence (P35367 whole entry): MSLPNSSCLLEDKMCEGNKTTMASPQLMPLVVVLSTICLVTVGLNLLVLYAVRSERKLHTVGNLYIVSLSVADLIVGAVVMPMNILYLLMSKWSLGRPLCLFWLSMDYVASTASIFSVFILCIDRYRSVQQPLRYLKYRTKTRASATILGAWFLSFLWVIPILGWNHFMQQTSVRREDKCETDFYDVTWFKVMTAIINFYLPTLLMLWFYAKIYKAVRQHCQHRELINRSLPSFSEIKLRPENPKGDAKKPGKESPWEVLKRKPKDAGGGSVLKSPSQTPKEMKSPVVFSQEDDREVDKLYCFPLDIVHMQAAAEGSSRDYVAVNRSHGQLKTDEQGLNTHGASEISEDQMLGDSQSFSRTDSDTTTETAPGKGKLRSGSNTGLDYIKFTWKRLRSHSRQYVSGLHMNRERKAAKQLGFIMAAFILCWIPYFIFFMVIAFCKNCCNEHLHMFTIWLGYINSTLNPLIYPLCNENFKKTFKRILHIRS
Procedure: Inhibition of [^3 H]-Pyrilamine Binding to Histamine-1 Receptors on Hela-S3 Cells
The inhibition of [^3 H]-pyrilamine binding to histamine-1 receptors on Hela-S3 cells (American Type Culture Collection) was determined by isotopic labelling and filtration techniques. A suspension of the cells in buffer (25 ml, 0.5% Bovine Serum Albumin, 0.1% sodium azide, phosphate buffered saline (PBS)) was centrifuged at 1000 rpm for 5 minutes in a JOUAN CR 422 centrifuge, collected, resuspended in buffer (25 ml) and spun again. The cells were counted using a haemocytometer and resuspended in buffer to provide a final concentration of 4.5×10^6 cells ml^-1. A portion of the Hela S3 cell suspension (1 ml) was added to each assay tube containing 25 μl of vehicle (50% DMSO/buffer) or 25 μl of solution containing test compound (dissolved in DMSO and diluted with sufficient PBS to give a final test concentration of 1 μM) and 25 μl 0f [^3 H]-pyrilamine (supplied by Amersham International and diluted with PBS to 3 nM). The tubes were mixed and incubated at 37° C. for 30 minutes. The tubes were then spun at 4° C. at 2000 rpm for 2 minutes. The supematant was removed and the cells resuspended in buffer (repeated x2). The cells were suspended in 300 μl of a 2:1 solution of 1M sodium hydroxide and 1% sodium dodecyl sulphate. The tubes were left overnight before the contents were tranferred to a scintillation vial, treated with 10 ml, OPTIPHASE MP scintillation fluid (OPTIPHASE MP is a trade mark) and the radioactivity counted in a scintillation counter. Non-displcable binding (NDB) was determined using Astemizole (5×10^-5 M) in place of test compounds. Defining the counts for total binding from the vehicle control sample as "TB" and the counts for total binding with antagonist as "TBA" the percentage specific binding (%SB) can be determined from the following equation. [formula] Results

[3] = tested on: PAF Induced Bronchoconstriction; assay: PAF Induced Bronchoconstriction in the Anaesthetised Guinea Pig; type: in vivo, guinea pig (male Dunkin-Hartley); settings: 10 mgkg^-1, p.o., PAF 100 ngkg^-1 i.v. bolus one hour after oral dosing
Excerpt: PAF Induced Bronchoconstriction in the Anaesthetised Guinea Pig
(§1) Following oral administration of test compound or vehicle, male Dunkin-Hartley guinea pigs (350-400 g) were anaesthetised by intraperitoneal injection of 60 mgkg^-1 sodium pentobarbitone (Sagatal, May & Baker UK). Through a midline incision of the neck, the trachea was cannulated and connected to a small animal respirator (Harvard, UK). Animals were artificially ventilated at a rate of 30 breaths per minute with a tidal volume of 8-10 ml to give a resting tracheal inflation pressure of 15mmHg as measured by a physiological pressure transducer (type P23XL, Spectramed USA) connected to a side arm of the respiratory circuit.
(§2) A jugular vein was cannulated for the administration of a bolus dose of propranolol and for the later administration of bolus PAF. A carotid artery cannulated for the measurement of arterial blood pressure via a physiological pressure transducer (type P23XL, Spectramed USA). Blood pressure and tracheal inflation pressure were recorded on a thermal array chart recorder (type TA4000, Gould Electronics UK).
Propranolol (1 mgkg^-1 i.v. & 3 mgkg^-1 s.c. Sigma Chemical Co. UK) was administered 10 minutes before PAF in order to prevent the bronchodilatory activity of catecholamines which may be released in response to PAF administration. PAF (100 ngkg^-1 i.v. bolus) was administered at the one hour time point following oral administration of the test compound or vehicle.
Changes in tracheal inflation pressure and blood pressure of drug treated animals were compared with changes from vehicle treated animals and percentage inhibition determined. One dose of test compound was investigated per animal.

[4] = tested on: Histamine Induced Bronchoconstriction; assay: Histamine Induced Bronchoconstriction in the Anaesthetised Guinea Pig; type: in vivo, guinea pig (male Dunkin-Hartley); settings: Cavia porcellus, 1 h, p.o., histamine infusion 10 μgkg^-1 min^-1 started one hour after oral dosing
Excerpt: Histamine Induced Bronchoconstriction in the Anaesthetised Guinea Pig
as §1, with “vehicle by oral gavage,” for “vehicle,”, “15 mmHg” for “15mmHg”
as §2, with “of” for “of a bolus dose of”, “infusion” for “later administration”, “histamine.” for “bolus PAF.”, “artery was” for “artery”
Following a suitable equilibration period, propranolol (1 mgkg^-1 i.v. & 3 mgkg ^-1 s.c. Sigma Chemical Co. UK) was administered to inhibit any resulting catecholamine release following histamine administration.
Histamine infusion (10 μgkg^-1 min^-1 at a rate of 10 mlhr^-1 using a perfusion pump type Perfuser securer FT, B. Braun Germany) was started at the one hour time point following oral administration of the test compound or vehicle. Changes in tracheal inflation pressure and blood pressure of drug treated animals were compared with changes from vehicle treated animals and ED50 values determined. One dose of test compound was investigated per animal.

SMILES | IC50 [1] [nM] | activity at 1 µM [2] [%] | % Inhibition [3] [%] | ED50 [4] [mg/kg]
CCOC[C@H](CC(C)C)N(CCCN(C)CCC(c1ccc(Cl)cc1)c1ccccn1)S(=O)(=O)c1ccc(Cn2c(C)nc3cnccc32)cc1 (stereo partly drawn) [Example 23, N-(3-{[3-(R,S)-(4-Chlorophenyl)-3-pyridin-2-yl-propyl]-methylamino}propyl)-N-(S)-(1-ethoxymethyl-3-methylbutyl)-4-(1H-2-methylimidazo[4,5-c]pyridin-1-ylmethyl)-phenylsulphonamide] | 300 | 33 | – | –
Cc1nc2cnccc2n1Cc1ccc(S(=O)(=O)N(C)[C@@H](CC(C)C)C(=O)OC(CCCN2CCC(C(O)(c3ccccc3)c3ccccc3)CC2)c2ccc(C(C)(C)C)cc2)cc1 (stereo partly drawn) [Example 2, N-Methyl-N-4-(1H-2-methylimidazo[4,5-c]pyridinylmethyl)-phenylsulphonyl-L-leucine-2-(4-[1,1-dimethylethyl]phenyl)-4-(hydroxydiphenylmethyl)-1-piperidinebutyl ester] | 2100 | 57 | – | –
CCOC[C@H](CC(C)C)N(C/C=C/c1cccc(/C(=C/CN2CCCC2)c2ccc(C)cc2)n1)S(=O)(=O)c1ccc(Cn2c(C)nc3cnccc32)cc1 [Example 25, N-(S)-(1-Ethoxymethyl-3-methylbutyl)-N-{(E)-3-(6-[3-pyrrolidino-1-{4-tolyl}-prop-1E-enyl]-pyridin-2-yl)-prop-2-en-1-yl}-4-(1H-2-methylimidazo[4,5-c]pyridin-1-ylmethyl)-phenylsulphonamide] | 420 | 55 | 50 | 0.5
Cc1nc2cnccc2n1Cc1ccc(S(=O)(=O)N(C)[C@@H](CC(C)C)C(=O)N2CCC(=C3c4ccc(Cl)cc4CCc4cccnc43)CC2)cc1 [Example 6, 4-(8-Chloro-5,6-dihydro-11H-benzo[5,6]cyclohepta[1.2-b]-pyridin-11-ylidene)-1-(N-methyl-N-4-{1H-2-methylimidazo[4,5-c]pyridinylmethyl}-phenylsulphonyl-L-leucyl)-piperidine amide] | 252 | 79 | 40 | 6.5
Cc1ccc(/C(=C\CN2CCCC2)c2cccc(/C=C/COC(=O)[C@H](CC(C)C)N(C)S(=O)(=O)c3ccc(Cn4c(C)nc5cnccc54)cc3)n2)cc1 [Example 17, 4-Methyl-2-{methyl-[4-(2-methyl-imidazo[4,5-c]pyridin-1-ylmethyl)-phenylsulphonyl]-amino}-pentanoic acid-(E)-3-(6-[3-pyrrolidino-1-{4-tolyl}-prop-1E-enyl]-pyridin-2-yl)-prop-2-en-1-yl ester] | 115 | 47 | – | –
Cc1ccc(/C(=C\CN2CCCC2)c2cccc(/C=C/C(=O)OC[C@H](CC(C)C)N(C)S(=O)(=O)c3ccc(Cn4c(C)nc5cnccc54)cc3)n2)cc1 [Example 8, (E)-3-(6-[Pyrrolidino-1-{4-tolyl}prop-1E-enyl]-2-pyridyl)acrylic acid, N-methyl-N-4-(1H-2-methylimidazo[4,5-c]pyridinylmethyl)-phenylsulphonyl-L-leucyl ester] | – | – | 46 | 0.16
Cc1nc2cnccc2n1Cc1ccc(S(=O)(=O)N(C)[C@@H](CC(C)C)C(=O)OCCCN2CCN(C(c3ccccc3)c3ccccc3)CC2)cc1 [Example 4, N-Methyl-N-4-(1H-2-methylimidazo[4,5-c]pyridinylmethyl)-phenylsulphonyl-L-leucine-3-(4-benzhydryl-piperazin-1-yl)-propyl ester] | 190 | 34 | – | –
